The results in this text go back to US10077261B2, “Imidazolin-5-one derivative useful as FASN inhibitors for the treatment of cancer” (Janssen Pharmaceutica NV, priority 2012, dated 2018).

pIC50: −log10 of the molar value.

The subject of assay [1] is PC-3M-Luc-C6 prostate cells. Kind of assay: In vitro PC-3M-Luc-C6 prostate cell proliferation assay in lipid reduced medium. It counts as cell-based. Conditions: 96 h, read-out: pIC50 PC-3M-Luc-C6 prostate cell (converted).
Assay [2] has as its target T1, hFASN enzyme (full length) (Homo sapiens, UniProt P49327).
T1 construct: 10 μL hFASN enzyme (full length, 300 ng, purified in house); made in house
Kind of assay: Fatty Acid Synthase (FASN) inhibition scintillation proximity assay. It counts as biochemical. Conditions: for inhibition at 10 µM: read-out: Human FASN % inhibition @ 10 μM, 10 μM test compound; for IC50: read-out: Human FASN pIC50 (converted). The essentials: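 Full-length in-house purified enzyme (300 ng) was tested in 100 mM KH2PO4 pH 7.5, 1 mM DTT with ³H-acetyl-CoA and malonyl-CoA as substrates; compounds ranged 0.01–30 μM. Reactions were stopped with streptavidin imaging beads, read by LEADseeker at 610 nm, and fitted to a 4-parameter logistic curve.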

In assay [3] the test system is A2780 ovarian cells. Description: A2780 ovarian cell proliferation assay in lipid reduced medium, without palmitate (MTT). It counts as cell-based. Conditions: Homo sapiens, A2780, 96 h; read-out: pIC50 A2780 Ovarian Cell, Without Palmitate (converted).
Assay [4] deals with Fatty Acid Synthase Keto-reductase Domain (FASN KR) (Homo sapiens, UniProt P49327). Description: Fatty Acid Synthase keto-reductase domain (FASN KR) inhibition, NADPH oxidation at 340 nm.
Fatty Acid Synthase Keto-reductase Domain (FASN KR), sequence (P49327 whole entry, the tested form may be a part): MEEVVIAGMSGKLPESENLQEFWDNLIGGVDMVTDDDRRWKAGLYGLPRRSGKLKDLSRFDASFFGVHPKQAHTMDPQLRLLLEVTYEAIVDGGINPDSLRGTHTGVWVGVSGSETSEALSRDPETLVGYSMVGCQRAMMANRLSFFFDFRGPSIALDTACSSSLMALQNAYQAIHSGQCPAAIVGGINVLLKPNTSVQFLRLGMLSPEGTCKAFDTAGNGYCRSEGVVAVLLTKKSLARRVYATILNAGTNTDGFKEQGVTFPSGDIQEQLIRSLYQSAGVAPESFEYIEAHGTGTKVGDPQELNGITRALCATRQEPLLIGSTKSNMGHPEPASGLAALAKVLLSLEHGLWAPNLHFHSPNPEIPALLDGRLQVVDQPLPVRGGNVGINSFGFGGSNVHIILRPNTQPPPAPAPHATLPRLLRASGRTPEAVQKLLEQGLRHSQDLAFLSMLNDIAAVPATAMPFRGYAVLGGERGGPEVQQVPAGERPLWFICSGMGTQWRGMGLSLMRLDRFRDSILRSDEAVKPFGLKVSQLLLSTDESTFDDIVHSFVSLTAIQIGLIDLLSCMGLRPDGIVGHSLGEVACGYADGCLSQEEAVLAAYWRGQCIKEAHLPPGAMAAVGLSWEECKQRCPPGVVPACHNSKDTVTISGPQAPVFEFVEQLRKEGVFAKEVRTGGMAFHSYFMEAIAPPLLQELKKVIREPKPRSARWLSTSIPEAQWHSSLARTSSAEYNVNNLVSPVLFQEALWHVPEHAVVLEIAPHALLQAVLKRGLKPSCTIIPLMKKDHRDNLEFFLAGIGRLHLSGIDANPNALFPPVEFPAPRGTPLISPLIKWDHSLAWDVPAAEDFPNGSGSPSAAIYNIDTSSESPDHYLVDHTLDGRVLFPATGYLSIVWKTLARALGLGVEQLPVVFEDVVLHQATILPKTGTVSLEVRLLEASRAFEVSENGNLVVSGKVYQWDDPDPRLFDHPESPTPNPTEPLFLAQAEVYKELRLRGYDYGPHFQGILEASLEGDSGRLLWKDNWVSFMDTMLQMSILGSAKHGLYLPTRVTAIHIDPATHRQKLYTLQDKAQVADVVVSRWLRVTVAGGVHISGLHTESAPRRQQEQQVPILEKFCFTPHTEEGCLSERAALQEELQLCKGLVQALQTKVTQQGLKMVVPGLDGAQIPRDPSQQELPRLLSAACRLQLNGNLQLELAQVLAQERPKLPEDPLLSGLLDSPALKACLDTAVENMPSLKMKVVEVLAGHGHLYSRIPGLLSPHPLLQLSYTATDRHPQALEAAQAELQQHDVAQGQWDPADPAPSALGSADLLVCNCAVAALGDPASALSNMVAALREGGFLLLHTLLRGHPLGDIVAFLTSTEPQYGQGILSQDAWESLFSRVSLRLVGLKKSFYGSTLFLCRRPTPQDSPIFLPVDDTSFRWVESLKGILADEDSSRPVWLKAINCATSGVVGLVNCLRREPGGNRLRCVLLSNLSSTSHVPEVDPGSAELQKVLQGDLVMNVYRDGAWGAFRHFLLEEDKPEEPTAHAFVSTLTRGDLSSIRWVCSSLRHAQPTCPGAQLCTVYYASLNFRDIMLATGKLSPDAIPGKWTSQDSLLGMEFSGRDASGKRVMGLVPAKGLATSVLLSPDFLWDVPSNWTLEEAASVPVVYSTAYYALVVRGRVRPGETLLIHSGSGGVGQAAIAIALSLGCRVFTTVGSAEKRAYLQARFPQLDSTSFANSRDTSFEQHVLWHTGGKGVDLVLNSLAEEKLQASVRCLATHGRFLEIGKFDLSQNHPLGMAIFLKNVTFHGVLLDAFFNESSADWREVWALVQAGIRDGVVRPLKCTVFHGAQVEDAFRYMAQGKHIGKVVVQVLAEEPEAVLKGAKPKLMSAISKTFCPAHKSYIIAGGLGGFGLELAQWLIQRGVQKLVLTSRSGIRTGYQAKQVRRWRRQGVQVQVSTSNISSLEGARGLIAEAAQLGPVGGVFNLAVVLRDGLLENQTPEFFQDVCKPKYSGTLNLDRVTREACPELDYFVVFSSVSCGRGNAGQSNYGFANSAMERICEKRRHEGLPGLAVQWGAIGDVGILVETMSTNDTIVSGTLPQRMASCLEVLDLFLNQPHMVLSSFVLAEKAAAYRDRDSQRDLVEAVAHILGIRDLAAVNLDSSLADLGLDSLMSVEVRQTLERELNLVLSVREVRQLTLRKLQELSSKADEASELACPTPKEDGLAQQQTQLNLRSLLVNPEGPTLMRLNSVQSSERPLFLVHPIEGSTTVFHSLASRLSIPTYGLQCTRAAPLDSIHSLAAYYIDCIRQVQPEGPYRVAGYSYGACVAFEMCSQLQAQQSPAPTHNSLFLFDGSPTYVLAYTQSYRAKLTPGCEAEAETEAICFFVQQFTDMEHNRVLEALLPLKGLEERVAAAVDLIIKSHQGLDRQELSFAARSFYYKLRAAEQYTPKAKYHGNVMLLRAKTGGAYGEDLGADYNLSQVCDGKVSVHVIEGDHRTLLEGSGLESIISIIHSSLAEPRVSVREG
Description: After 20 minutes incubation at room temperature the plate was measured again (T2).
The decrease in absorbance was calculated as (Absorbance before incubation T1)−(Absorbance following incubation T2).
A plot of Controlmin versus test compound concentration was fitted to a 4-parameter logistic curve using a non-linear least squares regression method.
Assay [5] deals with LNCaP-Vancouver prostate cells. Description: In vitro LNCaP Vancouver prostate cell proliferation assay in lipid reduced medium. The following applies: read-out: pIC50 LNCaP_Vancouver prostate cell (converted). It counts as cell-based.
Assay [6] has as its system A2780 ovarian cells. Kind of assay: A2780 ovarian cell proliferation assay in lipid reduced medium, with palmitate (MTT). It counts as cell-based. The following applies: Homo sapiens, A2780, 96 h; read-out: pIC50 A2780 Ovarian Cell, With Palmitate (converted). The essentials: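 Seeded cells were switched next day to lipid-reduced serum, exposed to compound and 25 μM palmitate complexed with fatty-acid-free BSA, and incubated 96 h. Proliferation was then determined by MTT absorbance at 544 nm, with a best-fit curve of signal against concentration.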

T1 sequence (P49327 whole entry): as the sequence (P49327 whole entry, the tested form may be a part) above

Regarding `Cn1ncc2cc(-c3ccc(C4=NC5(CC5)C(=O)N4CC4CN(C(=O)C5(C)CC5)C4)c(F)c3)ccc21` [compound 357, 5-(2-fluoro-4-(1-methyl-1H-indaozl-5-yl)phenyl)-6-((1-(1-methylcyclopropanecarbonyl)azetidin-3-yl)methyl)-4,6-diazaspiro[2.4]hept-4-en-7-one], the IC50 in assay [1] is 25.1 nM; in assay [2], 39.8 nM; with A2780 ovarian cells [3], 22.4 nM; in assay [5] it was 372 nM; in the assay on A2780 ovarian cells [6], more than 10000 nM. Also, the inhibition at 10 µM in assay [2] was determined as 97%. Further, the pIC50 in assay [4] was 7.20.

As to `Cn1cc(-c2ccc(-c3ccc(C4=NC5(CC5)C(=O)N4CC4CN(C(=O)C5(C)CC5)C4)c(F)c3)cc2)cn1` [compound 358, 5-(3-fluoro-4′-(1-methyl-1H-pyrazol-4-yl)-[1,1′-biphenyl]-4-yl)-6-((1-(1-methylcyclopropanecarbonyl)azetidin-3-yl)methyl)-4,6-diazaspiro[2.4]hept-4-en-7-one], the IC50 is 14.8 nM in assay [1]; 30.9 nM in assay [2]; 3.16 nM with A2780 ovarian cells [3]; 77.6 nM in assay [5]; more than 10000 nM in the assay with A2780 ovarian cells [6]. Besides, the inhibition at 10 µM in assay [2] is 100%. Also, the pIC50 in assay [4] was 7.29.

On to `CC1(C(=O)N2CC(CN3C(=O)C4(CC4)N=C3c3ccc(-c4ccc5cc(F)ccc5c4)cc3F)C2)CC1` [compound 359, 5-(2-fluoro-4-(6-fluoronaphthalen-2-yl)phenyl)-6-((1-(1-methylcyclopropanecarbonyl)azetidin-3-yl)methyl)-4,6-diazaspiro[2.4]hept-4-en-7-one], for which the IC50 in assay [1] was 8.32 nM; in assay [2], 39.8 nM; in the assay with A2780 ovarian cells [3], 8.13 nM; in assay [5] it was approximately 79.4 nM; with A2780 ovarian cells [6], more than 6170 nM. The inhibition at 10 µM in assay [2] was determined as 95%. Besides, the pIC50 in assay [4] was 7.38.

With `Cn1ncc2cc(-c3ccc(C4=NC5(CC5)C(=O)N4C[C@@H]4CCN(C(=O)C5(C)CC5)C4)c(F)c3)ccc21` [compound 361, (R)-5-(2-fluoro-4-(1-methyl-1H-indazol-5-yl)phenyl)-6-((1-(1-methylcyclopropanecarbonyl)pyrrolidin-3-yl)methyl)-4,6-diazaspiro[2.4]hept-4-en-7-one], the IC50 is 3.24 nM in assay [1]; 39.8 nM in assay [2]; approximately 3.63 nM with A2780 ovarian cells [3]; approximately 12.9 nM in assay [5]; more than 10000 nM with A2780 ovarian cells [6]. Further, in assay [2], the inhibition at 10 µM came to 103%. Besides, in assay [4], the pIC50 was 7.34.

Take `Cn1nccc1-c1ccc(-c2ccc(C3=NC4(CC4)C(=O)N3C[C@@H]3CCN(C(=O)C4(C)CC4)C3)c(F)c2)cc1` [compound 362]: the IC50 was approximately 56.2 nM in assay [1]; 77.6 nM in assay [2]; approximately 42.7 nM in the assay with A2780 ovarian cells [3]; approximately 295 nM in assay [5]; more than 10000 nM with A2780 ovarian cells [6]. In addition, the inhibition at 10 µM in assay [2] was determined as 96%. Besides, the pIC50 in assay [4] was 6.90.

Take `O=C(N1CC(CN2C(=O)C3(CC3)N=C2c2ccc(-c3ccc4cc(F)ccc4c3)cc2F)C1)C1(O)CC1` [compound 365, 5-(2-fluoro-4-(6-fluoronaphthalen-2-yl)phenyl)-6-((1-(1-hydroxycyclopropanecarbonyl)azetidin-3-yl)methyl)-4,6-diazaspiro[2.4]hept-4-en-7-one]: the IC50 in assay [1] was 7.59 nM; in assay [2], 23.4 nM; with A2780 ovarian cells [3], 6.46 nM; in assay [5] it was 56.2 nM; in the assay with A2780 ovarian cells [6] it was approximately 10000 nM. In assay [2], the inhibition at 10 µM worked out at 97%. In assay [4], this compound had a pIC50 of 7.27.

Consider `O=C(C1CC1)N1CC(CN2C(=O)C3(CC3)N=C2c2ccc(-c3ccc4ccccc4c3)cc2F)C1` [compound 368, 6-((1-(1-cyclopropanecarbonyl)azetidin-3-yl)methyl)-5-(2-fluoro-4-(naphthalen-2-yl)phenyl)-4,6-diazaspiro[2.4]hept-4-en-7-one], for which the IC50 in assay [1] was 28.8 nM; in assay [2] it was 28.2 nM; with A2780 ovarian cells [3], 21.4 nM; in assay [5] it was 214 nM; with A2780 ovarian cells [6] it was 4470 nM. In assay [2], the inhibition at 10 µM is 90%. The pIC50 in assay [4] was 7.23.

As to `O=C(C1CCO1)N1CC(CN2C(=O)C3(CC3)N=C2c2ccc(-c3ccc4cc(F)ccc4c3)cc2F)C1` (centres unmarked) [compound 369, 5-(2-fluoro-4-(6-fluoronaphthalen-2-yl)phenyl)-6-((1-(oxetan-2-carbonyl)azetidin-3-yl)methyl)-4,6-diazaspiro[2.4]hept-4-en-7-one], the IC50 in assay [1] is 10 nM; in assay [2], 26.3 nM; in the assay with A2780 ovarian cells [3] it was 4.27 nM; in assay [5], 45.7 nM; in the assay on A2780 ovarian cells [6], 2090 nM. Further, in assay [2], the inhibition at 10 µM came to 102%. The pIC50 in assay [4] is 7.43.

For the compound `Cn1ncc2cc(-c3ccc(C4=NC5(CC5)C(=O)N4C[C@@H]4CCN(C(=O)C5(O)CC5)C4)c(F)c3)ccc21` [compound 370, (R)-5-(2-fluoro-4-(1-methyl-1H-indazol-5-yl)phenyl)-6-((1-(1-hydroxycyclopropanecarbonyl)pyrrolidin-3-yl)methyl)-4,6-diazaspiro[2.4]hept-4-en-7-one], the IC50 in assay [1] was approximately 3.89 nM; in assay [2], 28.8 nM; in the assay on A2780 ovarian cells [3], approximately 2.4 nM; in assay [5], 20.4 nM; in the assay with A2780 ovarian cells [6], more than 10000 nM. Also, in assay [2], the inhibition at 10 µM came to 100%. In assay [4], this compound showed a pIC50 of 7.39.

On to `Cn1nccc1-c1ccc(-c2ccc(C3=NC4(CC4)C(=O)N3C[C@@H]3CCN(C(=O)C4(O)CC4)C3)c(F)c2)cc1` [compound 371, (R)-5-(3-fluoro-4′-(1-methyl-1H-pyrazol-5-yl)-[1,1′-biphenyl]-4-yl)-6-((1-(1-hydroxycyclopropanecarbonyl)pyrrolidin-3-yl)methyl)-4,6-diazaspiro[2.4]hept-4-en-7-one], for which the IC50 in assay [1] is 55 nM; in assay [2], 56.2 nM; in the assay with A2780 ovarian cells [3], 72.4 nM; in assay [5] it was 490 nM; in the assay with A2780 ovarian cells [6], 8130 nM. The inhibition at 10 µM in assay [2] came to 101%. The compound also showed a pIC50 in assay [4] of 6.89.

Regarding `O=C(N1CC(CN2C(=O)C3(CC3)N=C2c2ccc(-c3ccc4ccccc4c3)cc2F)C1)C1(O)CC1` [compound 372, 5-(2-fluoro-4-(naphthalen-2-yl)phenyl)-6-((1-(1-hydroxycyclopropanecarbbonyl)azetidin-3-yl)methyl)-4,6-diazaspiro[2.4]hept-4-en-7-one], the IC50 in assay [1] is 13.2 nM; in assay [2] it was 16.2 nM; in the assay on A2780 ovarian cells [3], 5.01 nM; in assay [5], 75.9 nM; in the assay with A2780 ovarian cells [6], more than 10000 nM. Further, the inhibition at 10 µM in assay [2] was found to be 101%. In addition, the pIC50 in assay [4] was 7.31.

With `O=C(N1CC(CN2C(=O)C3(CC3)N=C2c2ccc(-c3ccc4cccc(F)c4c3)cc2F)C1)C1(O)CC1` [compound 374, 5-(2-fluoro-4-(8-fluoronaphthalen-2-yl)phenyl)-6-((1-(1-hydroxycyclopropanecarbonyl)azetidin-3-yl)methyl)-4,6-diazaspiro[2.4]hept-4-en-7-one], the IC50 was 20.4 nM in assay [1]; 25.7 nM in assay [2]; 10 nM in the assay on A2780 ovarian cells [3]; 87.1 nM in assay [5]; more than 10000 nM in the assay with A2780 ovarian cells [6]. Moreover, the inhibition at 10 µM in assay [2] worked out at 99%. The compound also had a pIC50 in assay [4] of 7.45.

Turning to `COc1cccc2ccc(-c3ccc(C4=NC5(CC5)C(=O)N4CC4CN(C(=O)C5(O)CC5)C4)c(F)c3)cc12` [compound 375, 5-(2-fluoro-4-(8-methoxynaphthalen-2-yl)phenyl)-6-((1-(1-hydroxycyclopropanecarbonyl)azetidin-3-yl)methyl)-4,6-diazaspiro[2.4]hept-4-en-7-one], the IC50 is 77.6 nM in assay [1]; 43.7 nM in assay [2]; 72.4 nM with A2780 ovarian cells [3]; 457 nM in assay [5]; more than 10000 nM in the assay with A2780 ovarian cells [6]. For the same compound, the inhibition at 10 µM in assay [2] amounted to 103%. Also, the pIC50 in assay [4] is 7.05.

Turning to `Cn1cnc2cc(-c3ccc(C4=NC5(CC5)C(=O)N4CC4CN(C(=O)C5(O)CC5)C4)c(F)c3)ccc21` [compound 377, 5-(2-fluoro-4-(1-methyl-1H-benzo[d]imidazol-5-yl)phenyl)-6-((1-(1-hydroxycyclopropanecarbonyl)azetidin-3-yl)methyl)-4,6-diazaspiro[2.4]hept-4-en-7-one], the IC50 in assay [1] was 28.2 nM; in assay [2], 35.5 nM; in the assay with A2780 ovarian cells [3], 22.9 nM; in assay [5] it was 81.3 nM; in the assay on A2780 ovarian cells [6], more than 10000 nM. Further, in assay [2], the inhibition at 10 µM turned out to be 100%. In addition, the pIC50 in assay [4] was approximately 7.44.

Broadly, the inhibition is the relative decrease from the control value, in per cent. As a reminder, the pIC50 is the IC50 on a negative log10 scale, so that one unit is a factor of ten. Higher therefore signals a small IC50.
